# Measurements from patent publication US20250114345A1, “COMPOUNDS AND COMPOSITIONS AS CBP/P300 DEGRADERS AND USES THEREOF” (Oncopia Therapeutics, Inc. d/b/a/ SK Life Science Labs, priority 2023, published 2025).
# Biological target: T1, p300 (Homo sapiens, UniProt Q09472)
# T1 construct: host or cells: A549 P300 HiBit cells
# Test: P300 degradation, HiBit technology in A549 P300 HiBit cells (2 h)
# Format: cell-based
# Details: 2 hrs post treatment; for Dmax: A549, A549 P300 HiBit cells; for DC50: A549 P300 HiBit cells
# How it was run: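 Degradation potency and Dmax came from HiBiT luminescence in tagged A549 cells treated with serially diluted compound (DMSO stocks at 10 mM) after overnight equilibration in F-12K with 10% heat-inactivated FBS.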
# T1 sequence (Q09472 whole entry): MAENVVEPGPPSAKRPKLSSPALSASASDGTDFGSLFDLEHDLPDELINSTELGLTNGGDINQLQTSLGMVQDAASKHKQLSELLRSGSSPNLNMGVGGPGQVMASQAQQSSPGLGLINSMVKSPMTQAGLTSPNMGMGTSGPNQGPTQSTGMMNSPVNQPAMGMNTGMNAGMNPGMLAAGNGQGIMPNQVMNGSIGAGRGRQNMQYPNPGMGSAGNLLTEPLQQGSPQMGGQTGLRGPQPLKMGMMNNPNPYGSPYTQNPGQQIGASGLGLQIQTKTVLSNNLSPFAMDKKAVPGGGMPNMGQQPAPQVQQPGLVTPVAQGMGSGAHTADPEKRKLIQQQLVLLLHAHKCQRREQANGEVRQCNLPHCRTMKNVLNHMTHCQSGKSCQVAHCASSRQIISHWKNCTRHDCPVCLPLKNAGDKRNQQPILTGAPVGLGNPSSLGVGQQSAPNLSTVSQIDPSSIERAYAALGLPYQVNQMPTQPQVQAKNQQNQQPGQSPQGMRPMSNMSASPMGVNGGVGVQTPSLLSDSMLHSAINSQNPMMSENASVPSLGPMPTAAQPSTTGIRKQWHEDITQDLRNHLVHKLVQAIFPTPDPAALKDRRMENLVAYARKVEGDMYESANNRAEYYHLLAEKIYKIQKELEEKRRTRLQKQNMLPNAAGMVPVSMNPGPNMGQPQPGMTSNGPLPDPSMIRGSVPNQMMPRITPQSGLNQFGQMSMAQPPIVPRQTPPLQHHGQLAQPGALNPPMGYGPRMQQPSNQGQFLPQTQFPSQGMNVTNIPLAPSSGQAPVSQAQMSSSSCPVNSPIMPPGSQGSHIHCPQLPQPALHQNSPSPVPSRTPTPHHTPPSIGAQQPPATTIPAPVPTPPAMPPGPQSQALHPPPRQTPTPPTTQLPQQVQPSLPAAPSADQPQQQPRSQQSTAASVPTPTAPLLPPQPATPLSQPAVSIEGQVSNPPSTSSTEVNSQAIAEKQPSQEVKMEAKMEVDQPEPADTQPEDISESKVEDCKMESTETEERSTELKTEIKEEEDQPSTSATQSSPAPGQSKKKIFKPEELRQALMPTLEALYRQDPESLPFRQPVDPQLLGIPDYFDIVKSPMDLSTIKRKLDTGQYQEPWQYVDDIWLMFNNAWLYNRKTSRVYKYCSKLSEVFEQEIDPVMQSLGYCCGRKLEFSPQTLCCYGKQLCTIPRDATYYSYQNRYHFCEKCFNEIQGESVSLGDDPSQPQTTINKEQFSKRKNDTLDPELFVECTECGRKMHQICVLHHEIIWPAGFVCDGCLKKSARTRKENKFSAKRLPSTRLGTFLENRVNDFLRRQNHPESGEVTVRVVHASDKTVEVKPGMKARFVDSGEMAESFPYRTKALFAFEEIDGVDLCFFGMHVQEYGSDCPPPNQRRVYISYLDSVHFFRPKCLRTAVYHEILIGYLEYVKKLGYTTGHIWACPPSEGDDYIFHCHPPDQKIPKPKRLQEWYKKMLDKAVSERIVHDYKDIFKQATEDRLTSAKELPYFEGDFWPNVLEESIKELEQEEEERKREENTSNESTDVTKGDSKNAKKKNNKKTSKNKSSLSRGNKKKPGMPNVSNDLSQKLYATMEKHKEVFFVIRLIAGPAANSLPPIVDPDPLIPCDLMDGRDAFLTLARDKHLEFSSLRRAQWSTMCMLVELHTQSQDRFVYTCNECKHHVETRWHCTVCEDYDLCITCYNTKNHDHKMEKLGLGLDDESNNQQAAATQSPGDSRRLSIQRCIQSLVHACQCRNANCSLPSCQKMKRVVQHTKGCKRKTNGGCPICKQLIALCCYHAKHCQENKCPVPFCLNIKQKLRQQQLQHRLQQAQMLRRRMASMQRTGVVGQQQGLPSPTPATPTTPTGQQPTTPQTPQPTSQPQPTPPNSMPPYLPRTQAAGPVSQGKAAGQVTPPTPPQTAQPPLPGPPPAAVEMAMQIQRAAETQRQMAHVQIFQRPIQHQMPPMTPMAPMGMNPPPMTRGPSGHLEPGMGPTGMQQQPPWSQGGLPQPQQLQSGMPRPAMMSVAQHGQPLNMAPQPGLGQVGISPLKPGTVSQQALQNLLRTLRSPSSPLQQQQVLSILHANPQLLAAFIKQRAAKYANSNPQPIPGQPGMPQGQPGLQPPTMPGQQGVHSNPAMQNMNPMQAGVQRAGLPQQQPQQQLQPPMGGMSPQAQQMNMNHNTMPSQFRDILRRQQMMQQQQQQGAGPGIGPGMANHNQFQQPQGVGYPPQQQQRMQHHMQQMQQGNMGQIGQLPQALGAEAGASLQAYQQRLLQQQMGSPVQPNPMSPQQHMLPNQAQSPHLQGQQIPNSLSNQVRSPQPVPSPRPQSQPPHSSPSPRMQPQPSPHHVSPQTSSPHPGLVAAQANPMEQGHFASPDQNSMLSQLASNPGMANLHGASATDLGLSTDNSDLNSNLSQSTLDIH
SMILES,Dmax [%],DC50 [nM]
"Cc1cc(-c2ncc(N(C)c3cc(C4CCOCC4)cc4c3cc(C)c(=O)n4C)nn2)cnc1C(=O)NCC#Cc1ccc2occ(C3CCC(=O)NC3=O)c2c1 (stereo not shown) [Example B135, 5-(6-((1,3-dimethyl-2-oxo-7-(tetrahydro-2H-pyran-4-yl)-1,2-dihydroquinolin-5-yl) (methyl)amino)-1,2,4-triazin-3-yl)-N-(3-(3-(2,6-dioxopiperidin-3-yl)benzofuran-5-yl)prop-2-yn-1-yl)-3-methylpicolinamide]",< 20,> 1000
"Cn1c(=O)n(C)c2cc(N3CCOc4nc(-c5ccc(C(=O)NCC#Cc6ccc7nnn(C8CCC(=O)NC8=O)c7c6)nc5)ncc43)ccc21 (stereo not shown) [Example A190, 5-(5-(1,3-dimethyl-2-oxo-2,3-dihydro-1H-benzo[d]imidazol-5-yl)-6,7-dihydro-5H-pyrimido[4,5-b][1,4]oxazin-2-yl)-N-(3-(1-(2,6-dioxopiperidin-3-yl)-1H-benzo[d] [1,2,3]triazol-6-yl)prop-2-yn-1-yl)picolinamide]",60 to 79,1 to 9.9
"CC(C)c1cc(N(C)c2cnc(-c3ccc(C(=O)NCC#Cc4ccc5occ(C6CCC(=O)NC6=O)c5c4)nc3)nc2)cc2c1n(C)c(=O)n2C (stereo not shown) [Example A106, N-(3-(3-(2,6-dioxo-piperidin-3-yl)benzofuran-5-yl)prop-2-yn-1-yl)-5-(5-((7-isopropyl-1,3-dimethyl-2-oxo-2,3-dihydro-1H-benzo [d]imidazol-5-yl)(methyl)amino)pyrimidin-2-yl)picolinamide]",> 80,1 to 9.9
"CC(C)c1cc(-c2cccc3cc(-c4ccc(C(=O)NCC#Cc5cnc6ccn(C7CCC(=O)NC7=O)c6c5)nc4)ncc23)cc2c1n(C)c(=O)n2C (stereo not shown) [Example A13, N-(3-(1-(2,6-Dioxopiperidin-3-yl)-1H-pyrrolo[3,2-b]pyridin-6-yl)prop-2-yn-1-yl)-5-(8-(7-isopropyl-1,3-dimethyl-2-oxo-2,3-dihydro-1H-benzo[d]imidazol-5-yl)isoquinolin-3-yl)picolinamide]",> 80,1 to 9.9
"Cc1cc(N2CCCc3nc(-c4ccc(C(=O)NCC#Cc5ccc6occ(C7CCC(=O)NC7=O)c6c5)nc4)ncc32)cc2c1n(C)c(=O)n2C (stereo not shown) [Example A146, N-(3-(3-(2,6-dioxo-piperidin-3-yl)benzofuran-5-yl)prop-2-yn-1-yl)-5-(5-(1,3,7-trimethyl-2-oxo-2,3-dihydro-1H-benzo[d]imidazol-5-yl)-5,6,7,8-tetrahydropyrido [3,2-d]pyrimidin-2-yl)picolinamide]",> 80,1 to 9.9
"Cc1cc(-c2ncc3c(n2)CCCN3c2cccc3c2cc(C)c(=O)n3C)cnc1C(=O)NCC#Cc1ccc2occ(C3CCC(=O)NC3=O)c2c1 (stereo not shown) [Example B45, 5-(5-(1,3-dimethyl-2-oxo-1,2-dihydroquinolin-5-yl)-5,6,7,8-tetrahydropyrido[3,2-d]pyrimidin-2-yl)-N-(3-(3-(2,6-dioxopiperidin-3-yl)benzofuran-5-yl)prop-2-yn-1-yl)-3-methylpicolinamide]",> 80,1 to 9.9
"CCc1cc(-c2cccc3cc(-c4ccc(C(=O)NCC#Cc5cc6c(cnn6C6CCC(=O)NC6=O)cc5C)nc4)ncc23)c2cc(C)c(=O)n(C)c2c1 (stereo not shown) [Example B3, N-(3-(1-(2,6-Dioxopiperidin-3-yl)-5-methyl-1H-indazol-6-yl)prop-2-yn-1-yl)-5-(8-(7-ethyl-1,3-dimethyl-2-oxo-1,2-dihydroquinolin-5-yl)isoquinolin-3-yl)picolinamide]",20 to 39,10 to 99
"CCc1cc2c(N3CCCc4nc(-c5ccc(C(=O)NCC#Cc6ccc7occ(C8CCC(=O)NC8=O)c7c6)nc5)ncc43)cc(C3CCOCC3)cc2n(C)c1=O (stereo not shown) [Example B122, N-(3-(3-(2,6-dioxopiperidin-3-yl)benzofuran-5-yl)prop-2-yn-1-yl)-5-(5-(3-ethyl-1-methyl-2-oxo-7-(tetrahydro-2H-pyran-4-yl)-1,2-dihydroquinolin-5-yl)-5,6,7,8-tetrahydropyrido [3,2-d]pyrimidin-2-yl)picolinamide]",< 20,> 1000
"CCc1cc(N(C)c2ccc(-c3cnc(C(=O)NCC#Cc4cccc(NC5CCC(=O)NC5=O)c4)c(C)c3)c(C)c2)c2cc(C)c(=O)n(C)c2c1 (stereo not shown) [Example B15, N-(3-(3-((2,6-Dioxopiperidin-3-yl)amino)phenyl)prop-2-yn-1-yl)-5-(4-((7-ethyl-1,3-dimethyl-2-oxo-1,2-dihydroquinolin-5-yl)(methyl)amino)-2-methylphenyl)-3-methylpicolinamide]",> 80,10 to 99
"Cc1cc(-c2cnc(N(C)c3cc(C(C)C)c4c(c3)n(C)c(=O)n4C)cn2)cnc1C(=O)NCC#Cc1cccc(NC2CCC(=O)NC2=O)c1 (stereo not shown) [Example A50, N-(3-(3-((2,6-dioxopiperidin-3-yl)amino)phenyl)prop-2-yn-1-yl)-5-(5-((7-isopropyl-1,3-dimethyl-2-oxo-2,3-dihydro-1H-benzo [d]imidazol-5-yl)(methyl)amino)pyrazin-2-yl)-3-methylpicolinamide]",> 80,10 to 99
"Cc1cc(-c2ncc(N(C)c3cc(C4CCN(C)CC4)c4c(c3)n(C)c(=O)n4C)cn2)cnc1C(=O)NCC#Cc1ccc2occ(C3CCC(=O)NC3=O)c2c1 (stereo not shown) [Example A112, 5-(5-((1,3-dimethyl-7-(1-methylpiperidin-4-yl)-2-oxo-2,3-dihydro-1H-benzo [d]imidazol-5-yl)(methyl)amino)pyrimidin-2-yl)-N-(3-(3-(2,6-dioxopiperidin-3-yl)benzofuran-5-yl)prop-2-yn-1-yl)-3-methylpicolinamide]",> 80,1 to 9.9
"CCc1cc(N2CCCc3cc(-c4ccc(C(=O)NCC#Cc5ccc6occ(C7CCC(=O)NC7=O)c6c5)nc4)c(F)cc32)c2cc(C)c(=O)n(C)c2c1 (stereo not shown) [Example B133, N-(3-(3-(2,6-dioxopiperidin-3-yl)benzofuran-5-yl)prop-2-yn-1-yl)-5-(7′-ethyl-7-fluoro-1′,3′-dimethyl-2′-oxo-1′,2′,3,4-tetrahydro-2H-[1,5′-biquinolin]-6-yl)picolinamide]",> 80,1 to 9.9
"Cc1cc2c(N3CCCc4cc(-c5ccc(C(=O)NCC#Cc6ccc7occ(C8CCC(=O)NC8=O)c7c6)nc5)c(F)cc43)cc(C3CCOCC3)cc2n(C)c1=O (stereo not shown) [Example B143, N-(3-(3-(2,6-dioxopiperidin-3-yl)benzofuran-5-yl)prop-2-yn-1-yl)-5-(7-fluoro-1′,3′-dimethyl-2′-oxo-7′-(tetrahydro-2H-pyran-4-yl)-1′,2′,3,4-tetrahydro-2H-[1,5′-biquinolin]-6-yl) picolinamide]",> 80,1 to 9.9
"CCc1cc(N(C)c2ccc(-c3cnc(C(=O)NCC#Cc4cccc(NC5CCC(=O)NC5=O)c4)c(C)c3)cc2)c2cc(C)c(=O)n(C)c2c1 (stereo not shown) [Example B18, N-(3-(3-((2,6-Dioxopiperidin-3-yl)amino)phenyl)prop-2-yn-1-yl)-5-(4-((7-ethyl-1,3-dimethyl-2-oxo-1,2-dihydroquinolin-5-yl)(methyl)amino)phenyl)-3-methylpicolinamide]",> 80,10 to 99

# The remaining lines, values ahead:
Dmax [%],DC50 [nM],SMILES
60 to 79,1 to 9.9,"Cc1cc2c(N3CCCc4nc(-c5ccc(C(=O)NCC#Cc6ccc7occ(C8CCC(=O)NC8=O)c7c6)nc5)ncc43)nc(C(C)C)cc2n(C)c1=O (stereo not shown) [Example B130, N-(3-(3-(2,6-dioxopiperidin-3-yl)benzofuran-5-yl)prop-2-yn-1-yl)-5-(5-(7-isopropyl-1,3-dimethyl-2-oxo-1,2-dihydro-1,6-naphthyridin-5-yl)-5,6,7,8-tetrahydropyrido[3,2-d]pyrimidin-2-yl)picolinamide]"
60 to 79,1 to 9.9,"CC(C)c1cc(-c2cccc3cc(-c4ccc(C(=O)NCC#Cc5cc6c(cn5)cnn6C5CCC(=O)NC5=O)nc4)ncc23)cc2c1n(C)c(=O)n2C (stereo not shown) [Example A6, N-(3-(1-(2,6-Dioxopiperidin-3-yl)-1H-pyrazolo[4,3-c]pyridin-6-yl)prop-2-yn-1-yl)-5-(8-(7-isopropyl-1,3-dimethyl-2-oxo-2,3-dihydro-1H-benzo[d]imidazol-5-yl)isoquinolin-3-yl)picolinamide]"
60 to 79,1 to 9.9,"COc1nc(-c2cnc(C(=O)NCC#Cc3cc4c(C5CCC(=O)NC5=O)cccc4o3)c(C)c2)ncc1N(C)c1cc(C2CCOCC2)c2c(c1)n(C)c(=O)n2C (stereo not shown) [Example A167, 5-(5-((1,3-dimethyl-2-oxo-7-(tetrahydro-2H-pyran-4-yl)-2,3-dihydro-1H-benzo[d]imidazol-5-yl)(methyl)amino)-4-methoxypyrimidin-2-yl)-N-(3-(4-(2,6-dioxopiperidin-3-yl)benzofuran-2-yl)prop-2-yn-1-yl)-3-methylpicolinamide]"
< 20,> 1000,"CN1C(=O)Cc2cc(-c3cccc4cc(-c5ccc(C(=O)NCC#Cc6ccc7occ(C8CCC(=O)NC8=O)c7c6)nc5)ncc34)ccc21 (stereo not shown) [Example A104, N-(3-(3-(2,6-dioxo-piperidin-3-yl)benzofuran-5-yl)prop-2-yn-1-yl)-5-(8-(1-methyl-2-oxoindolin-5-yl)isoquinolin-3-yl)picolinamide]"
> 80,1 to 9.9,"Cc1cc2c(N3CCCc4cc(-c5ccc(C(=O)NCC#Cc6ccc7occ(C8CCC(=O)NC8=O)c7c6)nc5)c(C(F)F)cc43)cccc2n(C)c1=O (stereo not shown) [Example B22, 5-(7-(difluoromethyl)-1′,3′-dimethyl-2′-oxo-1′,2′,3,4-tetrahydro-2H-[1,5′-biquinolin]-6-yl)-N-(3-(3-(2,6-dioxopiperidin-3-yl)benzofuran-5-yl)prop-2-yn-1-yl)picolinamide]"
> 80,1 to 9.9,"Cc1cc2c(N3CCOc4cc(-c5ccc(C(=O)NCC#Cc6ccc7occ(C8CCC(=O)NC8=O)c7c6)nc5)c(F)cc43)cccc2n(C)c1=O (stereo not shown) [Example B145, 5-(4-(1,3-dimethyl-2-oxo-1,2-dihydroquinolin-5-yl)-6-fluoro-3,4-dihydro-2H-benzo[b][1,4]oxazin-7-yl)-N-(3-(3-(2,6-dioxopiperidin-3-yl)benzofuran-5-yl)prop-2-yn-1-yl) picolinamide]"
